In patent US10028961B2, “Therapeutically active compounds and their methods of use” (AGIOS PHARMACEUTICALS, INC., priority 2013, dated 2018):

Experiments:
[1] = biological target: IDH1-R132H homodimer enzyme (Homo sapiens (Human), UniProt O75874, R132H); experiment: In vitro assay IDH1-R132H homodimer, NADPH depletion assay with NADPH/NADP preincubation; type: biochemical; conditions: 5 μM NADPH and 37.5 μM NADP
How it was run: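 Compounds were added from DMSO at 50× final concentration, and the mutant enzyme was incubated 60 min at room temperature after starting with a substrate mix holding NADPH and 5 mM alpha-ketoglutarate. Residual cofactor, read by fluorescence after excess diaphorase and resazurin, reflects enzyme turnover.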

[2] = test system: Neurosphere cells (TS603); experiment: Cellular assay for IDH1m R132H inhibitors, 2-HG by LC-MS in neurosphere cells (TS603); type: cell-based; conditions: 2-HG in media at 48 hours
How it was run: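 TS603 neurosphere cells in NeuroCult medium were dosed with compound (0.25% DMSO final) at 37 C, 5% CO2. After 48 hours, medium 2-HG was measured by LC-MS. At 72 hours, viability was read by CellTiter-Glo luminescence.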

Sequence of IDH1-R132H homodimer enzyme (O75874 whole entry R132H): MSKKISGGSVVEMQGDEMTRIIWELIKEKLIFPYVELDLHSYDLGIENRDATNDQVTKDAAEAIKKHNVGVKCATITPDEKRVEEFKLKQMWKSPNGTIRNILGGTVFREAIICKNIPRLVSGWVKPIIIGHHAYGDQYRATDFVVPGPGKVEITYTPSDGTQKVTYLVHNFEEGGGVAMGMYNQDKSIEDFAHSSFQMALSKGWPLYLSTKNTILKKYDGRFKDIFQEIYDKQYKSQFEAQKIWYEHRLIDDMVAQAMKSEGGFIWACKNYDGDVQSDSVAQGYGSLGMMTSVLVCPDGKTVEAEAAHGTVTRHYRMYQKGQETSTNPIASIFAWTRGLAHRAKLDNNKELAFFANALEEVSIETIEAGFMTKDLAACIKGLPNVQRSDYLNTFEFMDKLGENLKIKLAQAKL

Row | IC50 [1] | IC50 [2] | SMILES
1 | 50 to 100 nM | < 50 nM | N#Cc1cc(F)cc(Nc2nc(NC3CCC(F)(F)CC3)nc(-c3cccc(C(F)(F)F)n3)n2)c1 [Compound 164]
2 | 100 to 1000 nM | < 50 nM | N#CC1(c2cc(Nc3nc(NCC(F)(F)F)nc(-c4cccc(C(F)(F)F)n4)n3)ccn2)CC1 [Compound 226]
3 | < 50 nM | < 50 nM | FC1(F)CCC(Nc2nc(NC3CCC(F)(F)C3)nc(-n3ccc(C(F)(F)F)n3)n2)C1 (stereo not drawn) [Compound 146]
4 | 100 to 1000 nM | < 50 nM | CC(C)(C#N)Nc1nc(Nc2ccnc(C(C)(F)F)c2)nc(-c2cccc(C(F)(F)F)n2)n1 [Compound 247]
5 | > 1000 nM | < 50 nM | FC1(F)CC(Nc2nc(NC3CC(F)(F)C3)nc(-c3nccc(C(F)(F)F)n3)n2)C1 [Compound 256]
6 | > 1000 nM | 50 to 100 nM | N#CC1(c2cc(Nc3nc(NC4CCC(F)(F)C4)nc(-c4nccc(C(F)(F)F)n4)n3)ccn2)CC1 (stereo not drawn) [Compound 261]
7 | 100 to 1000 nM | < 50 nM | Fc1ccc([C@H]2C[C@@H](Nc3nc(NC4CCC(F)(F)C4)nc(-c4cccc(C(F)(F)F)n4)n3)C2)cc1 (stereo partly drawn) [Compound 199]
8 | 100 to 1000 nM | < 50 nM | FC1(F)CCC(Nc2nc(NC3Cc4ccc(Cl)cc4C3)nc(-c3cccc(C(F)(F)F)n3)n2)C1 (stereo not drawn) [Compound 182]
9 | 50 to 100 nM | < 50 nM | FC1(F)CC(Nc2nc(NC3CC(F)(F)C3)nc(-n3ccc(C(F)(F)F)n3)n2)C1 [Compound 126]
10 | < 50 nM | < 50 nM | N#CC1(c2cc(Nc3nc(NC4CCC(F)(F)C4)nc(-c4cccc(C(F)(F)F)n4)n3)ccn2)CC1 (stereo not drawn) [Compound 151]
11 | 100 to 1000 nM | < 50 nM | FC1(F)CC(Nc2nc(NC3CC(F)(F)C3)nc(-c3csc(C(F)(F)F)n3)n2)C1 [Compound 170]
12 | 100 to 1000 nM | < 50 nM | FC1(F)CCC(Nc2nc(NC3CCC(F)(F)CC3)nc(-c3csc(C(F)(F)F)n3)n2)CC1 [Compound 223]
13 | 100 to 1000 nM | < 50 nM | FC1(F)CCC(Nc2nc(NC3CCN(c4ncccn4)C3)nc(-c3cccc(C(F)(F)F)n3)n2)C1 (stereo not drawn) [Compound 227]
14 | 100 to 1000 nM | < 50 nM | CC(C#N)Nc1nc(Nc2ccnc(C(C)(F)F)c2)nc(-c2cccc(C(F)(F)F)n2)n1 (stereo not drawn) [Compound 253]
15 | < 50 nM | < 50 nM | N#Cc1cc(F)cc(Nc2nc(NC3CCC(F)(F)C3)nc(-c3cccc(C(F)(F)F)n3)n2)c1 (stereo not drawn) [Compound 124]
16 | 100 to 1000 nM | < 50 nM | CC(CC#N)Nc1nc(N[C@H](C)C2CC2)nc(-c2cccc(C(F)(F)F)n2)n1 (stereo partly drawn) [Compound 214]
17 | 50 to 100 nM | < 50 nM | N#Cc1cc(Nc2nc(NC3CC(F)(F)C3)nc(-c3cccc(C(F)(F)F)n3)n2)ccn1 [Compound 213]
18 | > 1000 nM | 50 to 100 nM | FC1(F)CCC(Nc2nc(NC3CCC(F)(F)C3)nc(-c3cccc(OC(F)(F)F)n3)n2)C1 (stereo not drawn) [Compound 252]
19 | 50 to 100 nM | < 50 nM | Clc1cccc(-c2nc(NC(C3CC3)C3CC3)nc(NC(C3CC3)C3CC3)n2)n1 [Compound 131]
20 | > 1000 nM | ≥ 1000 nM | FC1(F)CCC(Nc2nc(NC3CCC(F)(F)CC3)nc(-c3nccc(C(F)(F)F)n3)n2)CC1 [Compound 293]
21 | < 50 nM | < 50 nM | CC(C)(C)Nc1nc(Nc2ccnc(C#N)c2)nc(-c2cccc(C(F)(F)F)n2)n1 [Compound 162]
22 | 100 to 1000 nM | < 50 nM | CC(F)(F)c1cccc(-c2nc(NC3CC(F)(F)C3)nc(NC3CC(F)(F)C3)n2)n1 [Compound 187]
23 | 100 to 1000 nM | < 50 nM | FC1(F)CCC(Nc2nc(NC3CCN(c4ccccn4)C3)nc(-c3cccc(C(F)(F)F)n3)n2)C1 (stereo not drawn) [Compound 222]

Row | SMILES | IC50 [1] | IC50 [2]
24 | FC1(F)CCC(Nc2nc(NC3Cc4ccccc4C3)nc(-c3cccc(C(F)(F)F)n3)n2)C1 (stereo not drawn) [Compound 152] | < 50 nM | < 50 nM
